Source: patent US12643903B2, “Bifunctional compounds for degradation of EGFR and related methods of use” (BeiGene, Ltd., priority 2020, dated 2026)

Assays:
Assay type in all cases: cell-based
Conditions in all cases: 16 h treatment, EGFR degradation by HTRF
EGFR [1] = biological target: T1, EGFR (Homo sapiens, UniProt P00533, L858R/T790M); experiment: Cell Degradation 1: EGFR degradation in H1975 cells, HTRF assay
T1 construct: endogenous in cells; host or cells: H1975
Outline: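 EGFR levels were read by HTRF (337 nm excitation, 665 and 620 nm emission) in lysates of H1975 cells exposed to compound for 16 h, with antibodies incubated overnight at room temperature. Fitting percent inhibition versus concentration to a Hill equation gave DC50.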

EGFR [2] = biological target: T2, EGFR (Homo sapiens, UniProt P00533, DEL746-750); experiment: Cell Degradation 2: EGFR degradation in HCC827 cells, HTRF assay
T2 construct: endogenous in cells; host or cells: HCC827
Outline: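 DC50 values derive from four-parameter fits of percent inhibition versus concentration. The HTRF read-out (665/620 nm ratio, 337 nm excitation) followed 16 h compound exposure of HCC827 cells, 1 h lysis and overnight room-temperature incubation with the HTRF antibodies.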

EGFR DTC = experiment: Cell Degradation 3: EGFR degradation in BaF3 cells (DTC), HTRF assay
Outline: (§1)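 BaF3 cells expressing EGFR (LTC triple mutant C797S/L858R/T790M or DTC) exposed to compounds for 16 h, 8 doses from 4-fold dilution, 0.2% DMSO. Residual EGFR quantified by HTRF in lysates (triple mutant lysate diluted 1:1); DC50 from four-parameter logistic fit.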

EGFR LTC = biological target: T3, EGFR LTC (Homo sapiens, UniProt P00533, C797S/L858R/T790M); experiment: Cell Degradation 3: EGFR degradation in BaF3 cells (LTC), HTRF assay
T3 construct: expressed in transfected cells; host or cells: BaF3
Outline: as §1

T1 sequence (P00533 25-1210 T790M/L858R): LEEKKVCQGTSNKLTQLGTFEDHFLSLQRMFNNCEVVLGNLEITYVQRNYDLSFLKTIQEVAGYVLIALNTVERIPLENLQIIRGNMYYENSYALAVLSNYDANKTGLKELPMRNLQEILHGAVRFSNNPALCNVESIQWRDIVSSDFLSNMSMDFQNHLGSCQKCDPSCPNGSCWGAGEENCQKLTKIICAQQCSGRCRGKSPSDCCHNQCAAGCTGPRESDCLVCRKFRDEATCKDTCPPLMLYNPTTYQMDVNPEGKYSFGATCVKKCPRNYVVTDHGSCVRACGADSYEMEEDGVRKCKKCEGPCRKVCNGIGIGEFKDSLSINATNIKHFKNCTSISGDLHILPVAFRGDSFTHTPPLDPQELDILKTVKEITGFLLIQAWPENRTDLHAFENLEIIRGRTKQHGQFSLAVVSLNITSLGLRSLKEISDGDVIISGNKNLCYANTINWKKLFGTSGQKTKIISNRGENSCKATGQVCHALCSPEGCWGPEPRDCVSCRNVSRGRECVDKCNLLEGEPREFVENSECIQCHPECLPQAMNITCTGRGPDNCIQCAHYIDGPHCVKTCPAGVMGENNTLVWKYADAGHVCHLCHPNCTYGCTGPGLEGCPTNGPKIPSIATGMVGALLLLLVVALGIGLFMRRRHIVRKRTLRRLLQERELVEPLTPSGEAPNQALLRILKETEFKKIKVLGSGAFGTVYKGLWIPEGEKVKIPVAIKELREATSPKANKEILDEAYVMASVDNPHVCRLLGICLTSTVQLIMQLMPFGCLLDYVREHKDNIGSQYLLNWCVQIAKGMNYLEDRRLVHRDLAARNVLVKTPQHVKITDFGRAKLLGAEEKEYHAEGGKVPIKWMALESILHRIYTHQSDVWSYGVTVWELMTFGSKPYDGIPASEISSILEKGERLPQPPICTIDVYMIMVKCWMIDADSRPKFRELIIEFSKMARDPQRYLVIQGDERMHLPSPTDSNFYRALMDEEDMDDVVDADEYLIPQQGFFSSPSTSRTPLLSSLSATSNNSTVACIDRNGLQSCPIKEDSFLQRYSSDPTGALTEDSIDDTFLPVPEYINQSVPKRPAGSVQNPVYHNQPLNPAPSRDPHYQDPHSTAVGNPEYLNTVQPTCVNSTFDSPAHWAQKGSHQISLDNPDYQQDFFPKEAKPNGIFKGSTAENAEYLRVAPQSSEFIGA
T3 sequence (P00533 25-1210 T790M/C797S/L858R): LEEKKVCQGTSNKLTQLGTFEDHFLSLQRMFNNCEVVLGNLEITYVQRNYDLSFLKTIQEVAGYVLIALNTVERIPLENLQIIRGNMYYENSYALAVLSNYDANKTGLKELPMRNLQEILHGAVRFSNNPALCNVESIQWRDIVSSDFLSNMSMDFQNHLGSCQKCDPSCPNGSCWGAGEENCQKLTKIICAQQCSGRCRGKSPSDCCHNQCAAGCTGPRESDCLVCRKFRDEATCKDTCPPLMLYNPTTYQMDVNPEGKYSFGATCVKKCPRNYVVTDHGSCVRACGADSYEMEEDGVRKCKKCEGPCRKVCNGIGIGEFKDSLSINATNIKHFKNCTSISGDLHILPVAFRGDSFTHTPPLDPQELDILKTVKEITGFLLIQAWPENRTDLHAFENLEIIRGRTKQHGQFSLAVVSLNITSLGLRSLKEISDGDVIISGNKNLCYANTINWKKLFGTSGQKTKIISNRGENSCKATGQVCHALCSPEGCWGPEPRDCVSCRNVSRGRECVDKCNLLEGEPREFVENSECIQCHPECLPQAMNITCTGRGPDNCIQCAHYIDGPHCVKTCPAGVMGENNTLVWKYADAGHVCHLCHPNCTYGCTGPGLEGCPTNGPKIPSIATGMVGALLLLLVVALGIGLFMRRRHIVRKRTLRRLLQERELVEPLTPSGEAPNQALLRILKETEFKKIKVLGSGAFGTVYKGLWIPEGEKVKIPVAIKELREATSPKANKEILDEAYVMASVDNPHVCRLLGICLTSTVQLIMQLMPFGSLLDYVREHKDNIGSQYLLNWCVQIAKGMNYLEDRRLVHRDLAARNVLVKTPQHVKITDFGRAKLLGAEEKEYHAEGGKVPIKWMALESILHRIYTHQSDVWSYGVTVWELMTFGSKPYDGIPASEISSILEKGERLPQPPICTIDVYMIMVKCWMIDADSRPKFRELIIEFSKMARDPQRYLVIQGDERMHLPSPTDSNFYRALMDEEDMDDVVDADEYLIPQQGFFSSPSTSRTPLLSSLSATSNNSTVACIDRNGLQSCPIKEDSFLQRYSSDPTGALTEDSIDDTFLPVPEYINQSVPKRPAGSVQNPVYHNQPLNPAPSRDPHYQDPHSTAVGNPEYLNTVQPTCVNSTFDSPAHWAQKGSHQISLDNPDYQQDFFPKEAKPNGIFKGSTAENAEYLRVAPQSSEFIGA
T2 sequence (P00533 with tags, fused parts or gaps DEL746-750): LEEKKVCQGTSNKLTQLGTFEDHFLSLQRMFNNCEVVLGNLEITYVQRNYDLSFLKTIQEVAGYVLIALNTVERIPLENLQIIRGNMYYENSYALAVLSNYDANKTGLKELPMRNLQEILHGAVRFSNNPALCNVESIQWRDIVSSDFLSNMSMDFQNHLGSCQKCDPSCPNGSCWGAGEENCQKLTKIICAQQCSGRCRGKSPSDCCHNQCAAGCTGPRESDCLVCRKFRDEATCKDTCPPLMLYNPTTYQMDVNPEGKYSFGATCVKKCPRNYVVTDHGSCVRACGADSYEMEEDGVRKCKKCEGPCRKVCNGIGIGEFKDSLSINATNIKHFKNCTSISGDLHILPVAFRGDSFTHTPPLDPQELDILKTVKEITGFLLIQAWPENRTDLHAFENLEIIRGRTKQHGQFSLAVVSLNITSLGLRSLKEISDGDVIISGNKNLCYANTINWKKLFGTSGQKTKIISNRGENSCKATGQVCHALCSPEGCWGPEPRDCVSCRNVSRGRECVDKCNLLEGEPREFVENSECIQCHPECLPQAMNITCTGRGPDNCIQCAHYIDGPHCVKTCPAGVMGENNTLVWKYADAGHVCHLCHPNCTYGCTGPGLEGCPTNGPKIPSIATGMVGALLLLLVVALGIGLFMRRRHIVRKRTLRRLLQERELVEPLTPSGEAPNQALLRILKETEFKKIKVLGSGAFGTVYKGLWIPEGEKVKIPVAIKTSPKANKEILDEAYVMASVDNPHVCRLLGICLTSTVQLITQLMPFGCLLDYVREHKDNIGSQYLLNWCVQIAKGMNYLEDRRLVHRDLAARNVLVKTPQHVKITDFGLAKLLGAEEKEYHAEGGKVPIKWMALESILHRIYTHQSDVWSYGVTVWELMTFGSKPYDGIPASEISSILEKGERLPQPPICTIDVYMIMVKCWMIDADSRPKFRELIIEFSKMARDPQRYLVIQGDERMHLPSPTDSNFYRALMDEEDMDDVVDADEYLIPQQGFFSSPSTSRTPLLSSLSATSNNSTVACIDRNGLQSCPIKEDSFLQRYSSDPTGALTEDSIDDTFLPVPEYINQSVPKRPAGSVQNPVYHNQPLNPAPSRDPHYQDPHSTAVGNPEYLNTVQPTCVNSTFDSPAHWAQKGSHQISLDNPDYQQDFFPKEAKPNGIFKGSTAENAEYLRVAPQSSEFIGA
T2 sequence (Q96SW2 whole entry partner): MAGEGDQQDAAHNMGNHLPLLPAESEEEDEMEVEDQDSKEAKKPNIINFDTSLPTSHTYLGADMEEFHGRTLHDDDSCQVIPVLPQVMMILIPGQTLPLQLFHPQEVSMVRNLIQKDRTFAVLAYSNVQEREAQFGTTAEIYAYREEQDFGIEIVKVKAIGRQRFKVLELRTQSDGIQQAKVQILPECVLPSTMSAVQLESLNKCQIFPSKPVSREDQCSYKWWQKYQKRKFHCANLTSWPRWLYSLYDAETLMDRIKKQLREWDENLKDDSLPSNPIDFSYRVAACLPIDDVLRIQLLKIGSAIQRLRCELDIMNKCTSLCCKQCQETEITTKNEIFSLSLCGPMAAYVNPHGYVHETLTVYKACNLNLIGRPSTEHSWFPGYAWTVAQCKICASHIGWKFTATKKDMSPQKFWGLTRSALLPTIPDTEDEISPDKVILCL

DC50 (EGFR [1]): 3.5 nM | DC50 (EGFR [2]): 6.4 nM | DC50 (EGFR DTC): 14.9 nM | DC50 (EGFR LTC): 39.9 nM
Structure (SMILES): COc1cc(N2CCC(N3CCN(CCC4CCN(c5ccc6c(c5)C(=O)N(C5CCC(=O)NC5=O)C6=O)CC4)CC3)CC2)c(C)cc1Nc1ncc(Br)c(Nc2cccc3c2N(S(C)(=O)=O)CC3)n1 (stereo not shown) [Example 91, 5-(4-(2-(4-(1-(4-((5-bromo-4-((1-(methylsulfonyl)indolin-7-yl)amino)pyrimidin-2-yl)amino)-5-methoxy-2-methylphenyl)piperidin-4-yl)piperazin-1-yl)ethyl)piperidin-1-yl)-2-(2,6-dioxopiperidin-3-yl)isoindoline-1,3-dione]
